This passage reports AC50 results from ChEMBL document CHEMBL5291721, “A preclinical secondary pharmacology resource illuminates target-adverse drug reaction associations of marketed drugs” (Nat Commun, 2023).

Assay [1] concerns the target T1, Alpha-2A adrenergic receptor (Homo sapiens, UniProt P08913).
T1 sequence (P08913 whole entry): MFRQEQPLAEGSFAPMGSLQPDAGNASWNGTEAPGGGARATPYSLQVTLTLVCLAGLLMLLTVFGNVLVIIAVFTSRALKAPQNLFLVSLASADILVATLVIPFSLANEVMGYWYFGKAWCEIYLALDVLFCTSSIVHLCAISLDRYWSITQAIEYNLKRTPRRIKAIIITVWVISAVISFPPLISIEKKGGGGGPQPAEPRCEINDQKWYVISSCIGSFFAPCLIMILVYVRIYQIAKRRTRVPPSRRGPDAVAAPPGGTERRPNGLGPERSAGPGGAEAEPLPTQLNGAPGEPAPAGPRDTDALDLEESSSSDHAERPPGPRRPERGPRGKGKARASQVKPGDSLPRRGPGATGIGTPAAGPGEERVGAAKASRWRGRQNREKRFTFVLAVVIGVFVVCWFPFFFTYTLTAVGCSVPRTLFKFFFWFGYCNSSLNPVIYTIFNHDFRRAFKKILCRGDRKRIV
The class given is functional, cell-based.

In assay [2] the target is Neuronal acetylcholine receptor subunit alpha-4 (Homo sapiens, UniProt P43681).
The target of assay [3] is T2, 5-hydroxytryptamine receptor 3A (Homo sapiens, UniProt P46098).
T2 sequence (P46098 whole entry): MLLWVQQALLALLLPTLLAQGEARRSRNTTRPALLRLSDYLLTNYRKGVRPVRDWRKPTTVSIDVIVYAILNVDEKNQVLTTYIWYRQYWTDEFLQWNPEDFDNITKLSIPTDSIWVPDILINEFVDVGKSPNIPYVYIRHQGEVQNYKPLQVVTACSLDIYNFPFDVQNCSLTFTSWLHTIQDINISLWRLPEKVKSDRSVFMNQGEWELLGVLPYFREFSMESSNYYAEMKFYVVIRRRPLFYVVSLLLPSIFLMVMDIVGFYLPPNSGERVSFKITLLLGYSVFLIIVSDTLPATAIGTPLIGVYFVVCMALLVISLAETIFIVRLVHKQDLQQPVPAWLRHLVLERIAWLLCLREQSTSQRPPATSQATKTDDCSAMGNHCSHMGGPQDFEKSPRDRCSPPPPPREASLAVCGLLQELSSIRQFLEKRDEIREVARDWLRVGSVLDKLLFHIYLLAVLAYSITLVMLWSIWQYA
Format: functional.

Assay [4] concerns the target Voltage-gated inwardly rectifying potassium channel KCNH2 (Homo sapiens, UniProt Q12809). The class given is functional. Particulars: read-out: AC50.
Another assay concerns the target Motilin receptor (Homo sapiens, UniProt O43193).
Assay [5] addresses T3, Prostaglandin G/H synthase 1 (Rattus norvegicus, UniProt Q63921).
T3 sequence (Q63921 whole entry): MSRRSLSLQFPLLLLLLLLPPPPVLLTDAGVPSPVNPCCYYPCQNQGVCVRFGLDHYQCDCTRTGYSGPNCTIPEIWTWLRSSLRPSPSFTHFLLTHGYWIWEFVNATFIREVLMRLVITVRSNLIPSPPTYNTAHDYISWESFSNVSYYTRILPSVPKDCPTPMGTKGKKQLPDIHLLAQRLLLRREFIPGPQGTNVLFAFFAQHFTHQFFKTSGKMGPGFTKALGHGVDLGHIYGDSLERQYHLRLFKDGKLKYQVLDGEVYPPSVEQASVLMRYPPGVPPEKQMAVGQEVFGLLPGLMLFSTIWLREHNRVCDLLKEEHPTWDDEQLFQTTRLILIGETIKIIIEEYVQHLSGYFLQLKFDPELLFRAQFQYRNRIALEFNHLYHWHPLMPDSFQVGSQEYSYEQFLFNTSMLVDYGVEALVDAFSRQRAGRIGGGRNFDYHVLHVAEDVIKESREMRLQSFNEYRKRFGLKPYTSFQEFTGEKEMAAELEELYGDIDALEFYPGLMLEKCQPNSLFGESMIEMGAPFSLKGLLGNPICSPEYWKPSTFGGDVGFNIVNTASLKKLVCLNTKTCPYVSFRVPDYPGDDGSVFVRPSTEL
Format: functional.

Assay [6] concerns the target Sodium-dependent noradrenaline transporter (Homo sapiens, UniProt P23975).
The target of a further assay is D(3) dopamine receptor (Homo sapiens, UniProt P35462).
Assay [7] concerns the target T4, Alpha-1A adrenergic receptor (Homo sapiens, UniProt P35348).
T4 sequence (P35348 whole entry): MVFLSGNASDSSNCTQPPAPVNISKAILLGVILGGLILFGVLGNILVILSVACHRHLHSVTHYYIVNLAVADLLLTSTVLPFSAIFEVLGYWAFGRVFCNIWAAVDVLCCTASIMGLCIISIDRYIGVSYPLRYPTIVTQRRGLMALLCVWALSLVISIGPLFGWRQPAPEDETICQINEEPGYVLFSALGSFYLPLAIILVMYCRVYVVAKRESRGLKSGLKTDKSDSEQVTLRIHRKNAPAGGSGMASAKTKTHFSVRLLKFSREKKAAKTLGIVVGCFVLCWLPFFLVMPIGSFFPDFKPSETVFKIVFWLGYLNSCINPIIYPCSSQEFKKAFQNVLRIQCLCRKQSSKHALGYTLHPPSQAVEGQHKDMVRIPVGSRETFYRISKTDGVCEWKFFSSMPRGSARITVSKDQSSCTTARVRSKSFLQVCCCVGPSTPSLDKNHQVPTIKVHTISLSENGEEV
The class given is functional, cell-based.

Assay [8] concerns the target T4, Alpha-1A adrenergic receptor. Format: functional, cell-based. This is another data set of the same source.
In another assay the target is Cannabinoid receptor 1 (Homo sapiens, UniProt P21554). Format: functional, cell-based.
Further: assay procedure not described here.

Sequence of Neuronal acetylcholine receptor subunit alpha-4 (P43681 whole entry): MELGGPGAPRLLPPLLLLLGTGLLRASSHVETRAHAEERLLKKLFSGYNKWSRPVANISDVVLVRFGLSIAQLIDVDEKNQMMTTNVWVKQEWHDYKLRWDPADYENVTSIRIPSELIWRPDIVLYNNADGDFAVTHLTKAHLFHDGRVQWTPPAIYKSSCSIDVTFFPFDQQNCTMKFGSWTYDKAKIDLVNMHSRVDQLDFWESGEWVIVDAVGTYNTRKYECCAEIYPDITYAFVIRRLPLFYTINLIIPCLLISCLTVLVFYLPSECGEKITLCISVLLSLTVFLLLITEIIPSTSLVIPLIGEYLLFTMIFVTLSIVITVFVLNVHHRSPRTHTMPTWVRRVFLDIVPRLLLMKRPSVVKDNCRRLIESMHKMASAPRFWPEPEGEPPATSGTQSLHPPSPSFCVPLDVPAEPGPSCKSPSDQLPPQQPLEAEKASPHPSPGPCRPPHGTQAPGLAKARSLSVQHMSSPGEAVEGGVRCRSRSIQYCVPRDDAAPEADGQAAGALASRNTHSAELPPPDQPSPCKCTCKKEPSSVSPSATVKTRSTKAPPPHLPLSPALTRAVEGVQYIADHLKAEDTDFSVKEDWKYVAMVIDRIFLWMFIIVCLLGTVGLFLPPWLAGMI
Sequence of Sodium-dependent noradrenaline transporter (P23975 whole entry): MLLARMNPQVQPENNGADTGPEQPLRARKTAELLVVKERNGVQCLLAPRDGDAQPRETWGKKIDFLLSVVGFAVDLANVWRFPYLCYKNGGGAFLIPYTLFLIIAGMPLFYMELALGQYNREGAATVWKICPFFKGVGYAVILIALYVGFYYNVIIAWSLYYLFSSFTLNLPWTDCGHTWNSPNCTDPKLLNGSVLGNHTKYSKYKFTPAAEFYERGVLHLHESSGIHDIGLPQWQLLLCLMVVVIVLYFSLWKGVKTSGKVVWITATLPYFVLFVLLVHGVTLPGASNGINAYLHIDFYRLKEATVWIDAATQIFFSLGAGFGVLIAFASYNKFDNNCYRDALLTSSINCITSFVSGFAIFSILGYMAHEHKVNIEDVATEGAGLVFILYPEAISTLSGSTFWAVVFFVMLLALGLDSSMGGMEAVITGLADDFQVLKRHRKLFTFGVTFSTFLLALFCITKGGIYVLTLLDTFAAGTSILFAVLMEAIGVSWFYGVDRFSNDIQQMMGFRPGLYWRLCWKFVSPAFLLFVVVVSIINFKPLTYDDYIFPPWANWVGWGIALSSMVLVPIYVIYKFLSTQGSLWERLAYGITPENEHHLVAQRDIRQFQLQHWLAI
Sequence of D(3) dopamine receptor (P35462 whole entry): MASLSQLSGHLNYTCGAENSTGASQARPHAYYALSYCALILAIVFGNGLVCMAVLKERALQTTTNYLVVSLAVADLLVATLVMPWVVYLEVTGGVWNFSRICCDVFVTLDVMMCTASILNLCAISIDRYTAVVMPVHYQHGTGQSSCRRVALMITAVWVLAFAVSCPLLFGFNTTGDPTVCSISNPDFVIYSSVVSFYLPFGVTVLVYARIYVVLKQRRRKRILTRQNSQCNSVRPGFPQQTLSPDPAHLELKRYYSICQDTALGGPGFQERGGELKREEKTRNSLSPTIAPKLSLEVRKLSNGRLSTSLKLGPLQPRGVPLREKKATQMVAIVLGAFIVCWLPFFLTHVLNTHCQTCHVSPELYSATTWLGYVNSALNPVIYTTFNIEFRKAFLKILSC
Sequence of Voltage-gated inwardly rectifying potassium channel KCNH2 (Q12809 whole entry): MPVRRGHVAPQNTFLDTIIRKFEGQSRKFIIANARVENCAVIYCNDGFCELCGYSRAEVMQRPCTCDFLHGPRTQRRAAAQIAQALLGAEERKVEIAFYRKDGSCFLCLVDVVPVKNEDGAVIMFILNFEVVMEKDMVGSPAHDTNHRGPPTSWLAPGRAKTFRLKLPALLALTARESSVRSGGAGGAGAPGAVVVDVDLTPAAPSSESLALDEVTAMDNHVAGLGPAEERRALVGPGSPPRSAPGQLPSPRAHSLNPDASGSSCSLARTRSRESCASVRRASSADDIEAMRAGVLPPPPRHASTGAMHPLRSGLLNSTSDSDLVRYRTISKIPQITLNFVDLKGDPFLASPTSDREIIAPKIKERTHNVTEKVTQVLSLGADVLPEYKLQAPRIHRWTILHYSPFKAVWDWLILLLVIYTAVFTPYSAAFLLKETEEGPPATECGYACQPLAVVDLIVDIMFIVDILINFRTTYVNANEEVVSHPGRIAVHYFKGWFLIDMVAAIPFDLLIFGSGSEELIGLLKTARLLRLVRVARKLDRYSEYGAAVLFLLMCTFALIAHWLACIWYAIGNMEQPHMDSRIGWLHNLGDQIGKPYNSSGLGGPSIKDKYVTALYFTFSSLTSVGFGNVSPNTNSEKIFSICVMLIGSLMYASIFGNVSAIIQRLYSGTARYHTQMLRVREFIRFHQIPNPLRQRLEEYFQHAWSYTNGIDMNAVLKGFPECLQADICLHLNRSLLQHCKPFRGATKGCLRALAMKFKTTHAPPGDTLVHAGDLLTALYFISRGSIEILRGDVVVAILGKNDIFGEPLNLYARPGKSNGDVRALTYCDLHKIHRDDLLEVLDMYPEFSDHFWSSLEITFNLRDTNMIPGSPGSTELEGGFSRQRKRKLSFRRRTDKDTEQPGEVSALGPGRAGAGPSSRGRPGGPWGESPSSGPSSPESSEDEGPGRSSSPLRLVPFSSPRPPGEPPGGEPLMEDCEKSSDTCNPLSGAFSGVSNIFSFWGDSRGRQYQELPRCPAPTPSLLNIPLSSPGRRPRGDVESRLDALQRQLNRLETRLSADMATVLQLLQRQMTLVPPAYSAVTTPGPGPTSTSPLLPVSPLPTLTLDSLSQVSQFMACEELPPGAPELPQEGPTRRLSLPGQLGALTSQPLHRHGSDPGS
Sequence of Cannabinoid receptor 1 (P21554 whole entry): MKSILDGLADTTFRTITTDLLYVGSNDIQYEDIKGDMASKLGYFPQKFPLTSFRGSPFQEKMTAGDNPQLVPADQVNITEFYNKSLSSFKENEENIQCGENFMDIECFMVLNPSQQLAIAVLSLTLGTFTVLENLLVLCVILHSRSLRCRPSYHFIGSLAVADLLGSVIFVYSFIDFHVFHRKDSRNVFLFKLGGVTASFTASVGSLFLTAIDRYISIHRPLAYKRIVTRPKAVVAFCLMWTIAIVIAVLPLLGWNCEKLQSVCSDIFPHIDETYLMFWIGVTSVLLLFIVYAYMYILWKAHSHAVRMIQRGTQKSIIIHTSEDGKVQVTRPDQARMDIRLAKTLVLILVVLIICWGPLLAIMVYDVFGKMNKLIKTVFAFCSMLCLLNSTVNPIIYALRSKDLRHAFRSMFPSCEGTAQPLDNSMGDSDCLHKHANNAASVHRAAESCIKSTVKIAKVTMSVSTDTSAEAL
Sequence of Motilin receptor (O43193 whole entry): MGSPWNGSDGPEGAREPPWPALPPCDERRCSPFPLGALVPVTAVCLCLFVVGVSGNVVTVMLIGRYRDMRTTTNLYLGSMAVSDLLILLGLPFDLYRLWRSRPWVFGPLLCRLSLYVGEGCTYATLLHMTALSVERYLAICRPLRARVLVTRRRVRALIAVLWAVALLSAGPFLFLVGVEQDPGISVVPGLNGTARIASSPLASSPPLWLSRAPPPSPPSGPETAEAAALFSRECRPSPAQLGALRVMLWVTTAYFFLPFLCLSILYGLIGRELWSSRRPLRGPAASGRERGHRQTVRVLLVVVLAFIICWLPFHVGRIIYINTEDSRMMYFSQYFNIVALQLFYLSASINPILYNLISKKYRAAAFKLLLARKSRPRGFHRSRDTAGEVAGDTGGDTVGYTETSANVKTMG

Consider `CCC1(C)CC(=O)NC1=O` (centres undefined) [ETHOSUXIMIDE], for which the AC50 (commonly the concentration giving half of the maximal activity seen) was > 10 µM in [1]; > 10 µM in assay [2]; > 30 µM in assay [3]; > 30 µM in [4]; > 10 µM at Motilin receptor; > 10 µM in [5]. The half-maximal activity concentration (AC50) was > 10 µM in assay [6] and > 30 µM on D(3) dopamine receptor.
Turning to `Nc1cc(N2CCCCC2)nc(N)[n+]1[O-]` [MINOXIDIL], the AC50 in assay [7] was > 30 µM; in assay [1], > 10 µM; in assay [2] it was > 10 µM; in [3], > 30 µM; at Motilin receptor, > 10 µM; in [5], > 30 µM. Further, the half-maximal activity concentration (AC50) (in assay [6]; on D(3) dopamine receptor; in assay [8]) was > 30 µM throughout.
For `Cc1cccc(Nc2ccncc2S(=O)(=O)NC(=O)NC(C)C)c1` [TORSEMIDE], the AC50 is > 10 µM in [1]; > 30 µM in assay [2]; > 30 µM in [3]; > 30 µM in assay [4]; > 30 µM at Motilin receptor; > 10 µM in [5]. The concentration at half-maximal activity (AC50) was > 10 µM in assay [6] and > 30 µM on D(3) dopamine receptor.
For `CC1CC(OC(=O)C(O)c2ccccc2)CC(C)(C)C1` (centres undefined) [CYCLANDELATE], the AC50 in assay [1] is > 10 µM; in [2], > 10 µM; in [3], > 30 µM; in [4], > 30 µM; on Motilin receptor, > 10 µM; in assay [5], > 10 µM. Also, the AC50 (in assay [6]; on D(3) dopamine receptor) was > 30 µM each time.
For the molecule `CC(=O)N1CCN(c2ccc(OCC3COC(Cn4ccnc4)(c4ccc(Cl)cc4Cl)O3)cc2)CC1` (centres undefined) [KETOCONAZOLE], the AC50 in [1] is > 10 µM; in assay [2], > 10 µM; on Cannabinoid receptor 1 it was > 30 µM; in assay [3], > 30 µM; at Motilin receptor it was > 10 µM; in [5], > 10 µM. In addition, the half-maximal activity concentration (AC50) (in assay [6]; on D(3) dopamine receptor) was > 30 µM each time.
Turning to `CC(NC(C)(C)C)C(=O)c1cccc(Cl)c1` (centres undefined) [BUPROPION], the AC50 was > 30 µM in [7]; > 10 µM in assay [1]; > 30 µM on Cannabinoid receptor 1; > 10 µM in [3]; > 10 µM on Motilin receptor; > 10 µM on D(3) dopamine receptor. For the same molecule, the concentration at half-maximal activity (AC50) in assay [8] is > 30 µM.
As for `CCc1ccc(C(=O)C(C)CN2CCCCC2)cc1` (centres undefined) [EPERISONE], the AC50 is > 30 µM in assay [7]; > 30 µM in assay [1]; > 30 µM in assay [2]; > 30 µM in assay [3]; 1.57 µM in assay [4]; > 30 µM at Motilin receptor. Besides, the AC50 was > 30 µM in assay [5], > 30 µM in assay [6], 9.4 µM at D(3) dopamine receptor and > 30 µM in assay [8].
In the case of `CCN(CC)CC(=O)Nc1c(C)cccc1C` [LIDOCAINE], the half-maximal activity concentration (AC50) on Motilin receptor was > 10 µM; in [5], > 30 µM.
Turning to `O=C(O[C@H]1C[N+]2(CCCOc3ccccc3)CCC1CC2)C(O)(c1cccs1)c1cccs1` [ACLIDINIUM BROMIDE], the half-maximal activity concentration (AC50) in assay [2] is > 10 µM; in assay [3], > 30 µM; in assay [4], 0.43 µM; on Motilin receptor it was > 10 µM; in assay [5], > 30 µM; in [6] it was > 10 µM. Further, the concentration at half-maximal activity (AC50) on D(3) dopamine receptor is > 10 µM.
In the case of `O=C(O)CCCC[C@@H]1SC[C@@H]2NC(=O)N[C@@H]21` [BIOTIN], the AC50 is > 10 µM in [1]; > 10 µM in assay [2]; > 30 µM in [3]; > 30 µM in assay [4]; > 10 µM at Motilin receptor; > 10 µM in [5]. The AC50 is > 10 µM in [6] and > 30 µM on D(3) dopamine receptor.
In the case of `COc1nc(C)nc(Cl)c1N=C1NCCN1` [MOXONIDINE], the AC50 in [7] was 0.09 µM; in assay [2] it was > 30 µM; on Cannabinoid receptor 1, > 30 µM; in [3], > 30 µM; in assay [4], > 30 µM; at Motilin receptor, > 30 µM. Moreover, the AC50 (in assay [5]; at D(3) dopamine receptor) was > 30 µM each time.
Turning to `N=C(N)NC(=O)Cc1c(Cl)cccc1Cl` [GUANFACINE], the concentration at half-maximal activity (AC50) in assay [7] is 0.0245 µM; in assay [2] it was > 10 µM; on Cannabinoid receptor 1, > 30 µM; in assay [3], > 30 µM; in assay [4], > 30 µM; at Motilin receptor, > 10 µM. Also, the AC50 in [5] was > 30 µM; in assay [6], > 30 µM; on D(3) dopamine receptor it was 20 µM.
`Cc1cnc(Nc2ccc(OCCN3CCCC3)cc2)nc1Nc1cccc(S(=O)(=O)NC(C)(C)C)c1` [FEDRATINIB]: the AC50 in assay [1] is > 10 µM; in assay [2], > 10 µM; in assay [3] it was > 30 µM; in assay [4], 0.82 µM; at Motilin receptor, 14 µM; in assay [5] it was > 30 µM. Further, the values for the AC50 (in [6]; on D(3) dopamine receptor) were 0.24 µM and 5.3 µM, respectively.
For the molecule `CN(Cc1ccc(C(C)(C)C)cc1)Cc1cccc2ccccc12` [BUTENAFINE], the half-maximal activity concentration (AC50) in assay [1] was > 10 µM; in assay [2], > 10 µM; in [3] it was > 30 µM; in assay [4] it was 2.8 µM; at Motilin receptor it was > 10 µM; in assay [5] it was > 10 µM. The half-maximal activity concentration (AC50) in assay [6] was > 10 µM; at D(3) dopamine receptor it was > 30 µM.
On to `OCCN(CCO)c1nc(N2CCCCC2)c2nc(N(CCO)CCO)nc(N3CCCCC3)c2n1` [DIPYRIDAMOLE], for which the AC50 in assay [7] was 3.5 µM; in assay [1], > 30 µM; in [3], > 30 µM; in assay [4], > 30 µM; in assay [5], > 30 µM; in assay [6], > 30 µM. Moreover, the concentration at half-maximal activity (AC50) (on D(3) dopamine receptor; in assay [8]) was > 30 µM in each case.
In the case of `Nc1ccc(S(=O)(=O)Nc2ncccn2)cc1` [SULFADIAZINE], the half-maximal activity concentration (AC50) in [1] is > 10 µM; in assay [2], > 10 µM; in assay [3], > 30 µM; in assay [4], > 30 µM; on Motilin receptor, > 10 µM; in assay [5], > 10 µM. The AC50 in assay [6] is > 10 µM; at D(3) dopamine receptor, > 30 µM.
Regarding `O=C1CN=C(c2ccccc2Cl)c2cc([N+](=O)[O-])ccc2N1` [CLONAZEPAM], the half-maximal activity concentration (AC50) in assay [7] is > 30 µM; in assay [1], > 10 µM; in assay [2], > 10 µM; in assay [3], > 30 µM; in assay [4], > 30 µM; on Motilin receptor, > 10 µM. Also, the AC50 is > 30 µM in assay [5], > 10 µM in assay [6], > 10 µM at D(3) dopamine receptor and > 30 µM in [8].
